The values that follow are results of earlier work, collected in US8445706B2, “Unnatural amino acids capable of covalently modifying protein phosphatases and their use as general and specific inhibitors and probes” (Board of Trustees of Northern Illinois University, priority 2008, dated 2013).

For this series the following is noted: neutral or basic aqueous solutions; cited from earlier work.

`O=P(O)(O)C(Br)c1ccccc1` (stereo not drawn) [α-bromobenzylphosphonate]: the solvolysis result is listed as “undergoes solvolysis”.
